Experimental data reported in patent US20040033213A1, “Methods of modulating dendritic cells using adjuvants” (Corixa Corporation, priority 2002, published 2004).

Legend:
[1] = tested on: KJ1 positive D011.10 CD4 T cells; assay: OVA pulsed DC transfer into D011.10 loaded Balb/c mice; assay type: in vivo; details: for Total KJ1 Positive Cells/Spleen: others 100 ng/ml
Method: In a second experiment 6-7 day bone marrow derived (Balb/c) DCs were pulsed with antigen and subsequently stimulated overnight with LPS, MPL® immunostimulant-S, and RC-527 (Table 6). 5×10^6 D011.10 CD4 (KJ1-positive) T cells were transferred into Balb/c mice, and 24 hours later ova-pulsed cultured, DCs from the control group (pulsed with ova only) and the indicated test DCs potentiated with LPS, MPL® immunostimulant-S or RC-527 were also injected intravenously. […] The transferred DCs stimulated with ova only, ova+LPS and ova+MPL® immunostimulant-S produced a similar effect in inducing the amplification of D011.10 T lymphocyte numbers above the value observed when untreated DCs (i.e., no ova and no lipid A) were used as the putative APC source and transfected into Balb/c mice preinjected with KJ1 CD4 cells.
5×10^6 KJ1 positive D011.10 spleen cells were injected into Balb/c mice (I.V.) on day zero minus 1; 24 hrs later 5×10^6 DC's from the indicated in vitro induction test groups were injected I.V. and the spleens from test animals were harvested 3 and 5 days later for total KJ1 enumeration.

[2] = tested on: cultured human dendritic cells (DC); assay: Flow cytometry of cell surface activation markers on human DCs restimulated 72 hours with AGPs (titration); assay type: cell-based; details: titration 0.1-2 μg/ml, FIG. 18
[3] = tested on: 6-7 day cultured human dendritic cells; assay: ELISA of cytokines (IL-12 p40, IL-12 p70, TNF-α) in 22 h induction supernatants of cultured human dendritic cells; assay type: cell-based; details: for IL-12 p40 / IL-12 p70 / TNF-α: 22 Hrs; for IL-12 p40 / IL-12 p70 / TNF-α / IL-12 (p40) expression (in words): LPS 10 ng/ml, others 100 ng/ml; for IL-12 (p40) expression (in words): all three experiments; for IL-12 (p70) (in words): the one donor in which LPS and MPL-S gave a significant amount; for TNF-α secretion (in words): three donors
Text: Recent articles have described how human dendritic cells can be derived in vitro from CD14 positive monocyte precursors in peripheral blood. A “buffy coat” preparation can now be commonly obtained from a unit of normal human peripheral blood from a blood bank on request. The leukocyte fraction was harvested from this buffy coat preparation using standard ficoll centrifugation techniques. Subsequently, the leukocyte fraction was labeled with anti-CD 14 antibody coupled to magnetic microbeads. This preparation was then passed over a magnet (Miltanyi Biotech) and CD14 positive monocytes were collected. These CD14 positive monocyte precursors were then cultured for 5-7 days in vitro (5×10^5 cells/ml) with GM-CSF (20 ng/ml) for the duration of the culture. […] After the 24 hour in vitro stimulation culture, cells were washed twice and stained with a panel of monoclonal antibodies specific for different cell surface activation and co-receptor molecules found on mature, activated DCs.
Supernatants from DCs stimulated with LPS, MPL® immunostimulant-S, RC-527, RC-529, and RC-544 were collected and tested by ELISA analysis for cytokines.

[4] = tested on: cryogenically stored 10 day murine DCs + D011.10 effector T cells; assay: Cryogenically preserved 10 day murine DCs in the D011.10 T cell assay (IFN-γ ELISA); assay type: cell-based
Method: In order to determine if 10 day GM-CSF precultured DCs could be recovered from cryogenic storage and still retain their functional potential, studies were carried out to determine the functional integrity of LPS- and RC-527-stimulated, cryogenically preserved, 10 day DCs in the D011.10 T cell assay system. Specifically, 10 day GM-CSF-precultured DCs were stored in liquid nitrogen for several weeks. The cells were subsequently thawed and maintained for 24 hours in tissue culture in the presence of GM-CSF. After 24 hours in this “resting” culture, DCs were pulsed with ova for four hours and potentiated with LPS for 24 hours prior to placing them against D011.10 effector T cells at 4:1 and 8:1 ratios.
D011.10 effector T cell cultures were maintained for 24 hours and 48 hours, and culture supernatants were collected at both time points. These supernatants were tested for IFN-γ using a commercial ELISA system. The IFNγ response induced either by antigen-pulsed, lipid A stimulated DCs after 24 hours incubation with D011.10 T cells (FIG. 13a) or by LPS and RC-527 stimulated, cryogenically stored, cultured DCs after 48 hours of incubation with D011.10 effector T cells (FIG. 13b) was measured.

[5] = Exp. # 092398 (second line, Day7)
[6] = Exp. # 092398 as printed (first line of section)
[7] = Exp. # 092398 as printed (third line of section)

## CCCCCCCCCCCC(CC(=O)NC(COC1OC(CO)C(OP(=O)(O)O)C(OC(=O)CC(CCCCCCCCCCC)OC(=O)CCCCCCCCC)C1NC(=O)CC(CCCCCCCCCCC)OC(=O)CCCCCCCCC)C(=O)O)OC(=O)CCCCCCCCC (stereo not shown) [RC-527]
[1]; Day 3 after I.V. transfer of 5×10^6 OVA pulsed DCs stimulated in vitro, LPS 10 ng/ml
  Total KJ1 Positive Cells/Spleen: 4.1 × 10^6 Cells/Spleen
[1]; Day 5 after I.V. transfer of 5×10^6 OVA pulsed DCs stimulated in vitro, LPS 10 ng/ml
  Total KJ1 Positive Cells/Spleen: 3.0 × 10^6 Cells/Spleen
[1]; day 3 and day 5 after transfer of stimulated DCs
  splenic KJ1+ CD4 T cell numbers (in words): higher levels of splenic KJ1^+ CD4 T cell numbers than any of the other test groups at both time points
[1]; second, similar DC transfer experiment, at 5 days, LPS 10 ng/ml, MPL-S 100 ng/ml
  KJ1+ CD4 response, % of all splenic CD4 cells: 3.9%
[2]
  CD86 expression, mean channel fluorescence (in words): highest stimulation of CD86 expression over most of the titration range
[3]; Exp. # 091698
  IL-12 p40: 202,200 pg/mL/5 × 10^5 Cells
[3]; [5]
  IL-12 p70: 201.4 pg/ml/5 × 10^5 Cells
[3]; Exp. # 092398, Day 7
  IL-12 p40: 163,000 pg/mL/5 × 10^5 Cells
  TNF-α: 10,750 pg/mL/5 × 10^5 Cells
[3]; [6]
  IL-12 p70: 194.0 pg/ml/5 × 10^5 Cells
[3]; [7]
  IL-12 p70: 168.9 pg/ml/5 × 10^5 Cells
[3]; Exp. # 093098 (third line of section)
  TNF-α: 7,020 pg/mL/5 × 10^5 Cells
[3]; Exp. # 093098
  IL-12 p40: 107,600 pg/mL/5 × 10^5 Cells
  TNF-α: 4,000 pg/mL/5 × 10^5 Cells
[3]
  IL-12 (p40) expression (in words): in every case a potent stimulator of IL-12 (p40)
  IL-12 (p70) (in words): high levels of IL-12 (p70)
  TNF-α secretion (in words): very strong TNF-α effect in all three donors
[3]; the other two experiments (different normal donors)
  IL-12 (p70) expression (in words): significant levels of IL-12 (p70) expression
[4]; compared with unfrozen 10 day DCs
  IFN-γ response of cryogenically stored DCs after antigen pulsing and activation (in words): fully capable of supporting an IFNγ response
[4]; cryogenically stored DCs, FIG. 13
  IFN-γ response, 48 hours versus 24 hours of incubation (in words): significantly stronger IFN-γ response after 48 hours

## CCCCCCCCCCCCCC(=O)O[C@H](CCCCCCCCCCC)CC(=O)NCCO[C@@H]1O[C@H](CO)[C@@H](OP(=O)(O)O)[C@H](OC(=O)C[C@@H](CCCCCCCCCCC)OC(=O)CCCCCCCCCCCCC)[C@H]1NC(=O)C[C@@H](CCCCCCCCCCC)OC(=O)CCCCCCCCCCCCC.CCN(CC)CC [RC-529, 2-[(R)-3-Tetradecanoyloxytetradecanoylamino]ethyl 2-Deoxy-4-O-phosphono-3-O-[(R)-3-tetradecanoyoxytetradecanoyl]-2-[(R)-3-tetradecanoyoxytetradecanoylamino]-β-D-glucopyranoside triethylammonium salt]
[3]; Exp. # 091698
  IL-12 p40: 38,700 pg/mL/5 × 10^5 Cells
[3]; [5]
  IL-12 p70: 215.3 pg/ml/5 × 10^5 Cells
[3]; Exp. # 092398, Day 7
  IL-12 p40: 127,500 pg/mL/5 × 10^5 Cells
  TNF-α: 7,400 pg/mL/5 × 10^5 Cells
[3]; [6]
  IL-12 p70: 4.2 pg/ml/5 × 10^5 Cells
[3]; [7]
  IL-12 p70: 28.2 pg/ml/5 × 10^5 Cells
[3]; Exp. # 093098
  IL-12 p40: 60,700 pg/mL/5 × 10^5 Cells
  TNF-α: 372 pg/mL/5 × 10^5 Cells
[3]
  IL-12 (p40) expression (in words): also stimulated IL-12 (p40) responses
  IL-12 (p70) (in words): high levels of IL-12 (p70)
  TNF-α secretion (in words): moderately lower than the effect due to RC-527
